According to PMC2892826 (Cell cycle (Georgetown, Tex.), 2009):
Where two headings read alike, the source gives them in different places.

Columns and labels:
[1] = target: CT-L activity of purified 20S proteasome (Oryctolagus cuniculus, UniProt G1SU71+G1T4Q9); assay: Proteolytic activity of purified 20S proteasome, CT-L; assay type: biochemical, rabbit
[2] = target: T-L activity of purified 20S proteasome (Oryctolagus cuniculus, UniProt G1SWK8); assay: Proteolytic activity of purified 20S proteasome, T-L; assay type: biochemical, rabbit; conditions: read-out: IC50 T-L, in vitro
[3] = target: PGPH activity of purified 20S proteasome (Oryctolagus cuniculus, UniProt G1T235); assay: Proteolytic activity of purified 20S proteasome, PGPH; assay type: biochemical, rabbit; conditions: read-out: IC50 PGPH, in vitro
[4] = tested on: MCF-7 breast cancer cells; assay: MTT cell viability assay; assay type: cell-based, human; conditions: read-out: IC50 cell viability (MTT)
[5] = tested on: MCF-10A immortalized non-transformed breast cells; assay: MTT cell viability assay; assay type: cell-based, human
[6] = tested on: C7-Kras (HPDE6-C7K-ras) pancreatic cells; assay: MTT cell viability assay; assay type: cell-based, human
[7] = tested on: C7 (HPDE6-C7) normal/immortalized pancreatic duct epithelial cells; assay: MTT cell viability assay; assay type: cell-based, human; conditions: read-out: IC50 cell viability (MTT)
T80-Hras ovarian cells = assay: MTT cell viability assay; assay type: cell-based, human; conditions: read-out: IC50 cell viability (MTT)
[8] = tested on: DU-145 prostate cancer cells; assay: MTT cell viability assay; assay type: cell-based, human; conditions: read-out: IC50 cell viability (MTT)
[9] = tested on: LNCaP prostate cancer cells; assay: MTT cell viability assay; assay type: cell-based, human
CaLu-1 lung cancer cells = assay: MTT cell viability assay; assay type: cell-based, human; conditions: read-out: IC50 cell viability (MTT)
A549 lung cancer cells = assay: MTT cell viability assay; assay type: cell-based, human; conditions: read-out: IC50 cell viability (MTT)
[10] = tested on: U266 multiple myeloma cells; assay: MTT cell viability assay; assay type: cell-based, human; conditions: read-out: IC50 cell viability (MTT)
[11] = tested on: RPMI-8226 multiple myeloma cells; assay: MTT cell viability assay; assay type: cell-based, human; conditions: read-out: IC50 cell viability (MTT)
[12] = target: T1, CT-L activity of the proteasome in primary multiple myeloma cells (Homo sapiens, UniProt P20618+P28074); assay: CT-L activity in primary MM cells from patients' bone marrow; assay type: cell-based; conditions: read-out: IC50 CT-L Activity
T1 sequence (P28074 60-263): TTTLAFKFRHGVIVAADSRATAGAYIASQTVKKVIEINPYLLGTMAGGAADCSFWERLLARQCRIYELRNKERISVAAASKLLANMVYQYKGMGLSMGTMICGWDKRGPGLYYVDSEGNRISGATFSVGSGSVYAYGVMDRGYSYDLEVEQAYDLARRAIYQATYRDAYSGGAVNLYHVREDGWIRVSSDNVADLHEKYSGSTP
T1 sequence (P20618 29-241): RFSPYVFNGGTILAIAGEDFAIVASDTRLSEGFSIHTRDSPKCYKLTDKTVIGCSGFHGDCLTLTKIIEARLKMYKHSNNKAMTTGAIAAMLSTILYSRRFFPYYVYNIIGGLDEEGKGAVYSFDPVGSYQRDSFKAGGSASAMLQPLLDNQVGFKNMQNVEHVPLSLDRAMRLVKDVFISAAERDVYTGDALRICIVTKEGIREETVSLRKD

[13] = tested on: primary multiple myeloma cells from patients' bone marrow; assay: Proliferation of primary MM cells; assay type: cell-based, human; conditions: read-out: IC50 Proliferation
[14] = tested on: primary multiple myeloma cells from patients' bone marrow; assay: Cell death of primary MM cells; assay type: cell-based, human; conditions: read-out: IC50 Cell Death
[15] = tested on: primary multiple myeloma cells from patients' bone marrow; assay: Viability of primary MM cells; assay type: cell-based, human; conditions: read-out: IC50 Viability
[16] = tested on: MCF-7 human breast tumors; assay: MCF-7 xenograft in nude mice; assay type: in vivo; conditions: MCF-7 s.c. xenograft, 1 mpk i.p. 2x weekly; for average tumor size: start ~200 mm^3, 16 days
A549 human lung tumors = assay: A549 xenograft in nude mice; assay type: in vivo; conditions: A549 s.c. xenograft, 1 mpk i.p. 2x weekly; for average tumor size: start ~200 mm^3, 16 days
[17] = target: tumor CT-L activity of the proteasome (Homo sapiens, UniProt P20618+P28074); assay: Proteasome activity in A549 tumor lysates after in vivo treatment, CT-L; design: species or system nude mice; conditions: A549 tumors, 1 mpk i.p., 2 h after last injection
[18] = target: tumor T-L activity of the proteasome (Homo sapiens, UniProt Q99436); assay: Proteasome activity in A549 tumor lysates after in vivo treatment, T-L; design: species or system nude mice; conditions: A549 tumors, 1 mpk i.p., 2 h after last injection
[19] = target: tumor PGPH activity of the proteasome (Homo sapiens, UniProt P28072); assay: Proteasome activity in A549 tumor lysates after in vivo treatment, PGPH; design: species or system nude mice; conditions: A549 tumors, 1 mpk i.p., 2 h after last injection
[20] = target: hepatic CT-L, T-L, and PGPH activities (Mus musculus, UniProt O09061+O55234+P70195+Q60692); assay type: in vivo, nude mice; conditions: livers of A549 tumor-bearing mice, 1 mpk i.p., 2 h after last injection
[21] = tested on: p27^Kip1 levels in A549 lung cancer cells; assay: Western blot of p27Kip1 in cultured A549 cells; assay type: cell-based, human; conditions: 48 h
[22] = target: CT-L activity in MCF-7/MCF-10A, T80-Hras/T80, C7-Kras/C7 cells (Homo sapiens, UniProt P20618+P28074); assay type: cell-based; conditions: 24 h, 3 pairs of cell lines, Fig. 2
[23] = tested on: MCF-7/MCF-10A, T80-Hras/T80, C7-Kras/C7 cells; assay: Proliferation by Trypan Blue cell counting in 3 pairs of cell lines; assay type: cell-based, human; conditions: 24 h, Fig. 3
[24] = tested on: MCF-7/MCF-10A, T80-Hras/T80, C7-Kras/C7 cells; assay: Cell death by Trypan Blue exclusion in 3 pairs of cell lines; assay type: cell-based, human; conditions: 24 h, Fig. 4
[25] = tested on: MCF-7/MCF-10A, T80-Hras/T80, C7-Kras/C7 cells; assay: TUNEL apoptosis assay in 3 pairs of cell lines; assay type: cell-based, human; conditions: 24 h
[26] = Tolerability in treated mice; assay type: in vivo; conditions: mice treated with PI-083
[27] = tested on: all cancer and non-transformed cell lines except RPMI-8226; assay: MTT cell viability assay, panel of cancer and non-transformed cell lines; assay type: cell-based; conditions: Homo sapiens, RPMI-8226, 24 h, read-out: IC50 cell viability (MTT)
[28] = read-out: IC50 cell viability (MTT), 24 h
[29] = read-out: IC50 cell viability (MTT), 72 h
[30] = Homo sapiens, Multiple myeloma cell, 24 h

CT-L activity of purified 20S proteasome, sequence (G1T4Q9 60-263): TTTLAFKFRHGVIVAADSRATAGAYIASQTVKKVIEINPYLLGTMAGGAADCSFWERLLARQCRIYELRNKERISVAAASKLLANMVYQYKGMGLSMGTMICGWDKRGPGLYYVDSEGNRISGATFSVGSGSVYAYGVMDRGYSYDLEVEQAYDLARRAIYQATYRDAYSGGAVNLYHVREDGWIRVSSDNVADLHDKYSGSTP
CT-L activity of purified 20S proteasome, sequence (G1SU71 29-241): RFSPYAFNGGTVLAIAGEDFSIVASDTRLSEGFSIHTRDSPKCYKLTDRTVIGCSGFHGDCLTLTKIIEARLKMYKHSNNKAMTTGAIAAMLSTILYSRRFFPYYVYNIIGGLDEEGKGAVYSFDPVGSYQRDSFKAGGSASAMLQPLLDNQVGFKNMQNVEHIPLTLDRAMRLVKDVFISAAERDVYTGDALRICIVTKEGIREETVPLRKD
T-L activity of purified 20S proteasome, sequence (G1SWK8 44-271): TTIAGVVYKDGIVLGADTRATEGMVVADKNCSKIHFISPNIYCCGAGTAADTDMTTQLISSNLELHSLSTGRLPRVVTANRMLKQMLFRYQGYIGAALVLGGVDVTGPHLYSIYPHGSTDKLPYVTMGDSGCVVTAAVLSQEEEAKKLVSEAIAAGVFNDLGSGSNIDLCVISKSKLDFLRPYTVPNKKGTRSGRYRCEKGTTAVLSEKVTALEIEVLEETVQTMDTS
PGPH activity of purified 20S proteasome, sequence (G1T235 96-265): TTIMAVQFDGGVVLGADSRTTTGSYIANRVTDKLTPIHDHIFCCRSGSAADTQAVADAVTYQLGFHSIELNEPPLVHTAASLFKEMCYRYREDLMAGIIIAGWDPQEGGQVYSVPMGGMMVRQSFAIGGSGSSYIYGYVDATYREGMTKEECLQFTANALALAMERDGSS

SMILES: O=C1C(Cl)=C(Nc2ccc(S(=O)(=O)Nc3ccccn3)cc2)C(=O)c2ccccc21 [PI-083]
- IC50 ([1]; read-out: IC50 CT-L, purified 20S proteasome, in vitro): 1 ± 0.63 µM
- IC50 [2]: 4.5 ± 1.4 µM
- IC50 [3]: 4.5 ± 1.2 µM
- IC50 ([4]; MCF-7, 24 h): 4.5 ± 0.82 µM
- IC50 ([4]; MCF-7, 72 h): 2.2 ± 1.1 µM
- IC50 [5, 28]: 17 ± 0.86 µM
- IC50 [5, 29]: 4.2 ± 2.1 µM
- IC50 [6, 28]: 2.4 ± 0.23 µM
- IC50 [6, 29]: 1.9 ± 0.2 µM
- IC50 ([7]; C7, 24 h): 5.1 ± 0.53 µM
- IC50 ([7]; C7, 72 h): 4.2 ± 1.6 µM
- IC50 (T80-Hras ovarian cells; T80-Hras, 24 h): 1.5 ± 0.57 µM
- IC50 (T80-Hras ovarian cells; T80-Hras, 72 h): 2.1 ± 0.4 µM
- IC50 ([8]; DU-145, 24 h): 8.6 ± 0.63 µM
- IC50 ([8]; DU-145, 72 h): 5 ± 0.72 µM
- IC50 [9, 28]: 14 ± 2.8 µM
- IC50 [9, 29]: 5.2 ± 1.1 µM
- IC50 (CaLu-1 lung cancer cells; CaLu-1, 24 h): 7.3 ± 0.43 µM
- IC50 (CaLu-1 lung cancer cells; CaLu-1, 72 h): 4.9 ± 1.2 µM
- IC50 (A549 lung cancer cells; A549, 24 h): 41 ± 17 µM
- IC50 (A549 lung cancer cells; A549, 72 h): 11 ± 6.7 µM
- IC50 ([10]; U266, 24 h): 23 ± 1.7 µM
- IC50 ([10]; U266, 72 h): 7 ± 1.5 µM
- IC50 ([11]; RPMI-8226, 24 h): 7.4 ± 0.38 µM
- IC50 ([11]; RPMI-8226, 72 h): 10 ± 4 µM
- IC50 ([12]; patient 3, 24 h): 1.4 µM
- IC50 ([12]; patient 6, 24 h): 1.2 µM
- IC50 ([12]; patient 9, 24 h): 1.8 µM
- IC50 ([13]; patient 1, 24 h): 5 µM
- IC50 ([13]; patient 2, 24 h): 2.9 µM
- IC50 ([13]; patient 4, 24 h): 1.3 µM
- IC50 ([13]; patient 5, 24 h): 2.2 µM
- IC50 ([13]; patient 6, 24 h): 2.2 µM
- IC50 ([13]; patient 10, 24 h): 10 µM
- IC50 ([14]; patient 5, 24 h): 1.1 µM
- IC50 ([14]; patient 10, 24 h): 9 µM
- IC50 ([15]; patient 2, 24 h): > 10 µM
- IC50 ([15]; patient 3, 24 h): > 10 µM
- IC50 ([15]; patient 4, 24 h): 2.2 µM
- IC50 ([15]; patient 4, 72 h): 2.2 µM
- IC50 ([15]; patient 5, 24 h): 3.4 µM
- IC50 ([15]; patient 6, 72 h): 1.4 µM
- IC50 ([15]; patient 7, 24 h): 1.8 µM
- IC50 ([15]; patient 7, 48 h): 1.4 µM
- IC50 ([15]; patient 7, 72 h): 1.3 µM
- IC50 ([15]; patient 8, 24 h): 2 µM
- IC50 ([15]; patient 8, 72 h): 1.8 µM
- IC50 ([15]; patient 9, 24 h): 1.4 µM
- IC50 ([15]; patient 10, 24 h): > 10 µM
- tumor growth inhibition [16]: 84%
- average tumor size [16]: about 396 ± 137 mm^3
- tumor growth inhibition (A549 human lung tumors): 54%
- average tumor size (A549 human lung tumors): about 511 ± 134 mm^3
- inhibition of tumor CT-L activity vs vehicle-treated controls [17]: 43%
- inhibition of tumor T-L activity vs vehicle-treated controls [18]: 12%
- inhibition of tumor PGPH activity vs vehicle-treated controls [19]: 34%
- effect on liver proteasome activities (CT-L, T-L, PGPH) [20]: did not inhibit
- p27^Kip1 levels [21]: marked increase
- selectivity of CT-L inhibition, tumor vs non-transformed cells [22]: inhibited more selectively the CT-L activity in tumor over non-transformed cells
- inhibition of proliferation, cancer vs non-transformed cells [23]: more potently than their non-transformed
- cell death, cancer vs non-transformed cells [24]: much more effective in increasing cell death in all 3 cancer cell lines over their non-transformed counterparts
- apoptosis (TUNEL) ([25]; T80 cells): induced very little apoptosis
- apoptosis (TUNEL) ([25]; cancer cell lines MCF-7, T80-Hras and C7-Kras): induced apoptosis in all 3 cancer cell lines
- apoptosis (TUNEL) ([25]; non-transformed MCF-10A and C7): did not induce apoptosis
- weight, appetite, activity of treated mice [26]: no weight loss, change in appetite or activity

SMILES: CC(C)C[C@H](NC(=O)[C@H](Cc1ccccc1)NC(=O)c1cnccn1)B(O)O [Bortezomib]
- difference in potency between Bortezomib and PI-083 ([1]; CT-L, Bortezomib vs PI-083): 100 fold
- IC50 (T80-Hras ovarian cells; Homo sapiens, 24 h): > 30 µM
- IC50 (T80-Hras ovarian cells; Homo sapiens, 72 h): 0.024 ± 0.01 µM
- IC50 [13, 30]: > 10 µM
- IC50 ([13]; patient 1, 24 h): > 10 µM
- IC50 ([13]; patient 2, 24 h): > 10 µM
- IC50 ([13]; patient 3, 24 h): > 10 µM
- IC50 ([13]; patient 5, 24 h): > 10 µM
- IC50 ([13]; patient 6, 24 h): > 10 µM
- IC50 ([13]; patient 7, 24 h): > 10 µM
- IC50 ([13]; patient 8, 24 h): > 10 µM
- IC50 ([13]; patient 9, 24 h): > 10 µM
- IC50 ([13]; patient 10, 24 h): > 10 µM
- IC50 [14, 30]: > 10 µM
- IC50 ([14]; patient 1, 24 h): > 10 µM
- IC50 ([14]; patient 2, 24 h): > 10 µM
- IC50 ([14]; patient 3, 24 h): > 10 µM
- IC50 ([14]; patient 5, 24 h): > 10 µM
- IC50 ([14]; patient 6, 24 h): > 10 µM
- IC50 ([14]; patient 7, 24 h): > 10 µM
- IC50 ([14]; patient 8, 24 h): > 10 µM
- IC50 ([14]; patient 9, 24 h): > 10 µM
- IC50 ([14]; patient 10, 24 h): > 10 µM
- antitumor effect (in words) [16]: ineffective
- average tumor size [16]: 1,448 ± 145 mm^3
- average tumor size (A549 human lung tumors): 864 ± 207 mm^3
- inhibition of tumor CT-L activity vs vehicle-treated controls [17]: 70%
- inhibition of tumor T-L activity vs vehicle-treated controls [18]: 0%
- inhibition of tumor PGPH activity vs vehicle-treated controls [19]: 68%
- p27^Kip1 levels [21]: marked increase
- apoptosis (TUNEL) ([25]; any of the 6 cell lines): induced little apoptosis
- IC50 [27]: > 30 µM
